In patent US20080153921A1, “Lycopene Formulations For the Treatment of Atherosclerotic Conditions” (CAMBRIDGE, priority 2005, published 2008):

Key:
lipid oxidising abzymes = assay: ELISA based abzyme assay; format: biochemical, human; details: in vitro
Description: ELISA assays were performed using Medac materials and reagents, which were used in accordance with the manufacturers instructions.
Briefly, serum samples from patients were treated as described above. 50 μl of sample diluent was pipetted into microtitre well A1 as blank, and 50 μl of the negative control, Positive Control and the diluted patients' samples were pipetted into other microtitre wells. The microplate wells were incubated for 60 min (±5 min) at 37 °C (±1° C.) in a humid chamber and then washed three times with 200 μl wash buffer per well. 50 μl of Conjugate was then added to each well and the microplate wells incubated again for 60 min (±5 min) at 37 °C (±1° C.) in a humid chamber and then washed. 50 μl of TMB-Substrate, was added to each well and the microplate wells incubated for 30 min (±2 min) at 37 °C (±1° C.) in a humid chamber. The reaction was stopped by adding 100 μl of Stop Solution, to each well.
Photometric reading was performed at 450 nm (ref. 620-650 nm) within 15 min after adding the Stop Solution.
To calculate the results, the OD value of the blank (well A1) was subtracted from all other OD values. Preferably, the OD value of the blank was <0.150, the mean OD value of the Negative Control was <0.100 and the OD value of the Positive Control was >0.800. Cut-off mean OD value of the Negative Control+0.380. Grey zone Cut-off±10%

[1] = tested on: lipid oxidising abzymes (atheroma extracted IgG); assay: Testing of anti-abzyme activity (lipid oxidation, MDA/thiobarbituric acid assay); format: biochemical, human
Description: Antibodies were extracted from advanced atherosclerotic lesions of human aorta retrieved from two male patients […], during bypass surgery of an abdominal aortal stenosis at the Centre of Cardio-Vascular Surgery of the Medical University of Rostov-na-Donu, Russian Federation. After recovery these samples were immediately put in 30% w/v solution of NaCl and stored at 0-4° C. for 1 month prior to examination. […]
The antibodies were extracted and analysed separately from the lesions of the two pieces of the abdominal aorta obtained from the […] different patients. […]
Samples of the human serum were incubated with different concentrations of lycopene, lycopene/lactoprotein conjugate or alone (control samples) with the presence of atheroma extracted IgG for 16 hours at 37° C. at pH 5.6. The level of lipid peroxidation was assessed as a level of MDA concentration which was measured by spectrophotometric method [Draper, H. H. et al Free Radic. […] Briefly, the level of abzymes in a sample was determined as follows: Samples of sera were diluted 1:1 by 0.05M acetate buffer pH 4.0 to make the final pH of these samples between 5.6-5.8. […] The supernatants were collected and their absorption measured at λ 525 nm to determine the concentration of malondialdehydes (MDA), which are products of lipid peroxidation.

## CC(C)=CCC/C(C)=C/C=C/C(C)=C/C=C/C(C)=C/C=C/C=C(C)/C=C/C=C(C)/C=C/C=C(\C)CCC=C(C)C [Lycopene]
Lipid oxidising abzymes
  abzyme inhibition activity: ineffective
[1]; abzyme inhibition
  Maximum inhibition in vitro: 0%
[1]; lipid oxidation assay, in vitro
  abzyme inhibition activity: ineffective
